ΔTm data for 3 compounds are collected here from paper PMC11851430, “Workflow for E3 Ligase Ligand Validation for PROTAC Development” (ACS Chemical Biology, 2025).

Test in all cases: DSF assay
Common to all, as to assay type: binding
Common to all, as to details: 20 µM compound

In one test the target is T1, GAKA (Homo sapiens, UniProt O14976).
T1 construct: purchased in-house DSF panel (SGC-style construct names; the trailing A/B is a construct suffix)
T1 sequence (O14976 14-351): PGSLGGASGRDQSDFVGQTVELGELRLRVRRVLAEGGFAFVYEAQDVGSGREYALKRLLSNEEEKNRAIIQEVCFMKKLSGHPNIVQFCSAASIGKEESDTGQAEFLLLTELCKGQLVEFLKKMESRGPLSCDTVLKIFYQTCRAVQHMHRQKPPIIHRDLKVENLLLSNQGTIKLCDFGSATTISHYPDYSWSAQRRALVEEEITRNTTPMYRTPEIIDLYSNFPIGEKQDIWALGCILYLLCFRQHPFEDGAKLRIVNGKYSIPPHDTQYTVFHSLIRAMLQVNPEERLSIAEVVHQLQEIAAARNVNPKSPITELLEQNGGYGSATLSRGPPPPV

The next test has as its target T2, MERTKA (Homo sapiens, UniProt Q12866).
T2 construct: purchased in-house DSF panel (SGC-style construct names; the trailing A/B is a construct suffix)
T2 sequence (Q12866 574-864): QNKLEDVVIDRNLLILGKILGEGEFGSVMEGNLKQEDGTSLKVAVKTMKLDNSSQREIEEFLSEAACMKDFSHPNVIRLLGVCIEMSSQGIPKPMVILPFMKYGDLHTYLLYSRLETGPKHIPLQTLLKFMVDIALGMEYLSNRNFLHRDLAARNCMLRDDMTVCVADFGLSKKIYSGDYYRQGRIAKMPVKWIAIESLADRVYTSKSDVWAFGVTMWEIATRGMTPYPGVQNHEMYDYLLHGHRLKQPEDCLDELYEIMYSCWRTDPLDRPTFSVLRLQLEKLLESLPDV

The target of the next test is T3, GSK3BB (Homo sapiens, UniProt P49841).
T3 construct: purchased in-house DSF panel (SGC-style construct names; the trailing A/B is a construct suffix)
T3 sequence (P49841 35-386): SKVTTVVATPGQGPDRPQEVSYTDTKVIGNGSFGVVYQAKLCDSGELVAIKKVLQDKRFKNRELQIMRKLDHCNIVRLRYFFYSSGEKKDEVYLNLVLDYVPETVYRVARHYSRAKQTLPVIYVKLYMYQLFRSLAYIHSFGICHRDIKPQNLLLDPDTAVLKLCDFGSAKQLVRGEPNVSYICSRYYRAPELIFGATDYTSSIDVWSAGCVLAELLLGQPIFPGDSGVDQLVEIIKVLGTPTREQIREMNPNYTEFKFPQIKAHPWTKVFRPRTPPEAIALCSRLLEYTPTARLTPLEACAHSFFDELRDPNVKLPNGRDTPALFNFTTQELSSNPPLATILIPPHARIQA

A further test addresses T4, MAPK14A (Homo sapiens, UniProt Q16539).
T4 construct: purchased in-house DSF panel (SGC-style construct names; the trailing A/B is a construct suffix)

A further test has as its target T5, CDK2A (Homo sapiens, UniProt P24941).
T5 construct: purchased in-house DSF panel (SGC-style construct names; the trailing A/B is a construct suffix)

Another test concerns the target T6, CHEK2A (Homo sapiens, UniProt O96017).
T6 construct: purchased in-house DSF panel (SGC-style construct names; the trailing A/B is a construct suffix)

Another test has as its target T7, CASKA (Homo sapiens, UniProt O14936).
T7 construct: purchased in-house DSF panel (SGC-style construct names; the trailing A/B is a construct suffix)
T7 sequence (O14936 1-337): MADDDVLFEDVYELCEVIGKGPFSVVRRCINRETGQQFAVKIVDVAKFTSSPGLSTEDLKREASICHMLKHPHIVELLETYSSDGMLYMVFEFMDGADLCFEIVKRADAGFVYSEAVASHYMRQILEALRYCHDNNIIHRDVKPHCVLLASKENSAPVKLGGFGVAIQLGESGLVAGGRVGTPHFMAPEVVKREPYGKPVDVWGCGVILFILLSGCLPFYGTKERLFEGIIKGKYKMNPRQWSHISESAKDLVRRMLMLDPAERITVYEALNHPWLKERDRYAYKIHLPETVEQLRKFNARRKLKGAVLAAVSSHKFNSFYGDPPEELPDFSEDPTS

A further test concerns the target T8, ULK3A (Homo sapiens, UniProt Q6PHR2).
T8 construct: purchased in-house DSF panel (SGC-style construct names; the trailing A/B is a construct suffix)
T8 sequence (Q6PHR2 1-277): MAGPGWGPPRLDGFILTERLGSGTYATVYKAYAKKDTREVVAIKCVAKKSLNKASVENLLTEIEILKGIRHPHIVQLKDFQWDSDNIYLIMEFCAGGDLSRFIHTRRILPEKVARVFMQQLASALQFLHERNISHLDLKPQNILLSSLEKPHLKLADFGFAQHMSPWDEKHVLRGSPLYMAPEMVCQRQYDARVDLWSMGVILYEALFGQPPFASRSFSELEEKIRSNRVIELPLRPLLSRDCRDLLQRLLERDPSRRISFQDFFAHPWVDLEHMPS

In another test the target is T9, SRCA (Homo sapiens, UniProt P12931).
T9 construct: purchased in-house DSF panel (SGC-style construct names; the trailing A/B is a construct suffix)
T9 sequence (P12931 254-536): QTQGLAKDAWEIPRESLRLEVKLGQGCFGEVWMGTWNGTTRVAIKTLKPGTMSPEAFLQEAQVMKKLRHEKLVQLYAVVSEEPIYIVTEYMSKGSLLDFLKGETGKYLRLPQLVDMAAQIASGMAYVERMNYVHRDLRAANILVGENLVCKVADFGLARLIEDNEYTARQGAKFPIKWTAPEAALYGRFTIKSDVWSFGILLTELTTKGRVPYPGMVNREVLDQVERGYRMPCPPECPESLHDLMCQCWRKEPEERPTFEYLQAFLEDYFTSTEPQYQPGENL

The next test addresses T10, MAPK10A (Homo sapiens, UniProt P53779).
T10 construct: purchased in-house DSF panel (SGC-style construct names; the trailing A/B is a construct suffix)

The next test concerns the target T11, NEK1A (Homo sapiens, UniProt Q96PY6).
T11 construct: purchased in-house DSF panel (SGC-style construct names; the trailing A/B is a construct suffix)
T11 sequence (Q96PY6 1-328): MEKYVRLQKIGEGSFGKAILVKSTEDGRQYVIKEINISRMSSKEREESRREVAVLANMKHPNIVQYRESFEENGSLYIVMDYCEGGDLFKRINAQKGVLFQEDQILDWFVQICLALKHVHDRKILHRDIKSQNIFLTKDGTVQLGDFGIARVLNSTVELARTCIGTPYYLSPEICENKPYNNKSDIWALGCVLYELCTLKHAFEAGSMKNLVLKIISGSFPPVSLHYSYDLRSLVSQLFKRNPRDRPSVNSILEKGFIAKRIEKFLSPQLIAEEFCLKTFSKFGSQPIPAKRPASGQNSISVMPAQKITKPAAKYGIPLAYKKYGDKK

A further test addresses T12, TTK1A (Homo sapiens, UniProt P33981).
T12 construct: purchased in-house DSF panel (SGC-style construct names; the trailing A/B is a construct suffix)
T12 sequence (P33981 519-808): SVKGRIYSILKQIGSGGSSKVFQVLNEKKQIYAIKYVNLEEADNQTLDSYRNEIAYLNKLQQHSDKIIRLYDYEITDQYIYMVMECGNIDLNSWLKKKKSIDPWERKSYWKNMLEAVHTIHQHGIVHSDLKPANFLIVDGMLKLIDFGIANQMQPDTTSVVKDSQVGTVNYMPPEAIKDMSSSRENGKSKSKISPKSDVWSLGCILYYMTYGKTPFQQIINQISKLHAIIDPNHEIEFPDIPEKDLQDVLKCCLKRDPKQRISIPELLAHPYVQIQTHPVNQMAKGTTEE

In the next test the target is T13, CAMK1DA (Homo sapiens, UniProt Q8IU85).
T13 construct: purchased in-house DSF panel (SGC-style construct names; the trailing A/B is a construct suffix)
T13 sequence (Q8IU85 whole entry): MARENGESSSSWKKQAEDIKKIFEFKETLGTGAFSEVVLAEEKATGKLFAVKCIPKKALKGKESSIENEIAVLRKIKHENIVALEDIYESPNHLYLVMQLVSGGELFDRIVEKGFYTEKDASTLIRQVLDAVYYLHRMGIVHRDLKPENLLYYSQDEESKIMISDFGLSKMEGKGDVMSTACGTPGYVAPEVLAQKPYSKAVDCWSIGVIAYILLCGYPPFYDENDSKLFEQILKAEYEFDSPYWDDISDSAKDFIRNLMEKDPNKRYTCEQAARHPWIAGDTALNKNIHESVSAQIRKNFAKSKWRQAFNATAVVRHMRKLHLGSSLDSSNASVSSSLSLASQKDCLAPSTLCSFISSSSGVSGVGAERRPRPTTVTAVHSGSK

Another test addresses T14, FESA (Homo sapiens, UniProt P07332).
T14 construct: purchased in-house DSF panel (SGC-style construct names; the trailing A/B is a construct suffix)

A further test concerns the target T15, CAMK2BA (Homo sapiens, UniProt Q13554).
T15 construct: purchased in-house DSF panel (SGC-style construct names; the trailing A/B is a construct suffix)

Another test concerns RPS6K5A.

T10 sequence (P53779 whole entry): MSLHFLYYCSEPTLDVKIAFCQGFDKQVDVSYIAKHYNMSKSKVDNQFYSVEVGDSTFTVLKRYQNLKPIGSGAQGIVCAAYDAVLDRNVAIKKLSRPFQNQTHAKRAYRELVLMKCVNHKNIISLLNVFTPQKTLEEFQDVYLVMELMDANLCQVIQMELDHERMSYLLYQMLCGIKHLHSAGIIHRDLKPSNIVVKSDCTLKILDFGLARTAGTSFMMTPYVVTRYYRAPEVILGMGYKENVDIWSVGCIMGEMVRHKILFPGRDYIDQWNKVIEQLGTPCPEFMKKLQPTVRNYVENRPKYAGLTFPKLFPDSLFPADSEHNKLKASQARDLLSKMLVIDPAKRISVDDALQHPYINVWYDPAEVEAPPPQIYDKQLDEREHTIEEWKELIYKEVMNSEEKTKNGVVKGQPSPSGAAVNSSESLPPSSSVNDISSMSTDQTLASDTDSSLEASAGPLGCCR
T6 sequence (O96017 210-531): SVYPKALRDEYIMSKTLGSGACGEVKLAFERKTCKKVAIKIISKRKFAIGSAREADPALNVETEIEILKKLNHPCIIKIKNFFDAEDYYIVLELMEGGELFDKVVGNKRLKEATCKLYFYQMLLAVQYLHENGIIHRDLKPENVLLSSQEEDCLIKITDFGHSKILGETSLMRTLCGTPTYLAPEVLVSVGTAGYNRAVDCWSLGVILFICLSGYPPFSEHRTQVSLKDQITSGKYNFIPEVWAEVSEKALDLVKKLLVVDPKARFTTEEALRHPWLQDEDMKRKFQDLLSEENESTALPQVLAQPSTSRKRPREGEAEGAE
T4 sequence (Q16539 whole entry): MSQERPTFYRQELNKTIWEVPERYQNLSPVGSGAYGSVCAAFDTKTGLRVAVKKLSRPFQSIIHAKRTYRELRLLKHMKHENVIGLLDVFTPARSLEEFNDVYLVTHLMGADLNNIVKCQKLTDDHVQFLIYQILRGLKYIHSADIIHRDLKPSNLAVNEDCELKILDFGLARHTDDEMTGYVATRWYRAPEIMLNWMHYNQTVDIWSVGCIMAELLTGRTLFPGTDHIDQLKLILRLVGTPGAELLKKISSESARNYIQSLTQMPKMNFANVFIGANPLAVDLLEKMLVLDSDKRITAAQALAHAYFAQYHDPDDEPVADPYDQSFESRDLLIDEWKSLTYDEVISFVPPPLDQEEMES
T14 sequence (P07332 whole entry): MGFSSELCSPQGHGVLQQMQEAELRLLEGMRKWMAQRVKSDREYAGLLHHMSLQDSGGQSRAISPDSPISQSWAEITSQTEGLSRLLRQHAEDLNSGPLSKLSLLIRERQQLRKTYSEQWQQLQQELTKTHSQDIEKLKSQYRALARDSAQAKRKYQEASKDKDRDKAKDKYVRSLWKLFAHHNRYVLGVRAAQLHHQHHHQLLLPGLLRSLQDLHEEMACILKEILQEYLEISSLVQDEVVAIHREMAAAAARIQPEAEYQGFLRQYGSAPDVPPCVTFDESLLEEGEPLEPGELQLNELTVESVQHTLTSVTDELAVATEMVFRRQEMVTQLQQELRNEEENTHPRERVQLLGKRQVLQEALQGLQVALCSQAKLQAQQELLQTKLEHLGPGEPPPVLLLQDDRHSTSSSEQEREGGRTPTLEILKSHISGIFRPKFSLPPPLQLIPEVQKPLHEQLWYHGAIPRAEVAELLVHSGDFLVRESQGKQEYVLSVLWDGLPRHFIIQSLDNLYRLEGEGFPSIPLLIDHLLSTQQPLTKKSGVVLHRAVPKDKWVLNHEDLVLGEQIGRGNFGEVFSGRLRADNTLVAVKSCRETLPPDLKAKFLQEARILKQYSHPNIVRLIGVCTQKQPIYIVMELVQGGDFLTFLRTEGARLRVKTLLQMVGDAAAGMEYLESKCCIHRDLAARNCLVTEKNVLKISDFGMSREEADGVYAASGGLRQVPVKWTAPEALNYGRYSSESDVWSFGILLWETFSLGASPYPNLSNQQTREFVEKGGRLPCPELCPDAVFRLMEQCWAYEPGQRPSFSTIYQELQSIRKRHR
T15 sequence (Q13554 11-303): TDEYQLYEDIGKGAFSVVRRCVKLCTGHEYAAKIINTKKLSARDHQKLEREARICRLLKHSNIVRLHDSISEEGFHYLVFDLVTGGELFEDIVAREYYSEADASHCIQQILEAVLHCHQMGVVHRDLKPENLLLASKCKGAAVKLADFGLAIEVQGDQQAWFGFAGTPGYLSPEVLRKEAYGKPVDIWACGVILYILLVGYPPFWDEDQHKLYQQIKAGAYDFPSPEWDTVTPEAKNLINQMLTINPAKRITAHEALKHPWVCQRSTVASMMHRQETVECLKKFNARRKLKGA

On to `CC(C)(C)OC(=O)NCCCOCCOCCOCCCNC(=O)c1cc(Nc2cc(C3CC3)[nH]n2)nc(Nc2ccc(CC#N)cc2)n1` [5-L], for which the shift in melting temperature (ΔTm) (as a rule, the change in melting temperature against a reference sample) at 20 µM at GAKA was determined as 3.75 °C; at MERTKA, 2.15 °C; at GSK3BB, 14.2 °C; at MAPK14A, 0.52 °C; at CDK2A, 7.86 °C; on CHEK2A, 5.41 °C. Besides, the ΔTm at 20 µM at CASKA is 1.29 °C; on ULK3A, 13.3 °C; on SRCA it was 2.2 °C; at MAPK10A, 6.08 °C; at NEK1A, 0.017 °C; at TTK1A it was 4.18 °C. Besides, the figures for the ΔTm at 20 µM at CAMK1DA, on FESA and at CAMK2BA were 3.86 °C, 2.67 °C and 0.97 °C, respectively. In addition, in the test with RPS6K5A, the ΔTm was found to be 11.21 °C.

On to `CCOC(=O)c1cc(Nc2cc(C3CC3)[nH]n2)nc(Nc2ccc(CC#N)cc2)n1` [compound 5], for which the ΔTm at 20 µM on GAKA amounted to 4.56 °C; at MERTKA, 2.06 °C; on GSK3BB it was 14.4 °C; on MAPK14A, 0.11 °C; at CDK2A it was 12.5 °C; at CHEK2A, 4.17 °C. The ΔTm at 20 µM at CASKA is 1.91 °C; on ULK3A, 15.4 °C; on SRCA, 3.24 °C; on MAPK10A it was 5.33 °C; on NEK1A it was 0.62 °C; at TTK1A, 4.46 °C. The ΔTm at 20 µM on CAMK1DA was 3.94 °C; at FESA, 3.17 °C; at CAMK2BA, 1.15 °C. Besides, the thermal shift (ΔTm) in the test with RPS6K5A worked out at 14.62 °C.

Regarding `CC(C)(C)OC(=O)NCCOCCOCCOCCOCCC(=O)N1CCN(c2cc(Nc3cc(C4CC4)[nH]n3)nc(Nc3ccc(CC#N)cc3)n2)CC1` [4-L], the ΔTm at 20 µM at GAKA worked out at 5.92 °C; at MERTKA, 4.52 °C; on GSK3BB, 14.8 °C; on MAPK14A, 0.05 °C; at CDK2A, 7.79 °C; at CHEK2A, 6.36 °C. Besides, the ΔTm at 20 µM at CASKA was -0.0121 °C; on ULK3A it was 18.5 °C; at SRCA, 7.07 °C; on MAPK10A, 5.76 °C; on NEK1A, 0.45 °C; at TTK1A, 4.14 °C. The results for the ΔTm at 20 µM on CAMK1DA, at FESA and at CAMK2BA were 2.24 °C, 4.19 °C and -0.09 °C, respectively. In addition, in the test on RPS6K5A, the ΔTm came out at 9.52 °C.
